In patent EP4562004B1, “NOVEL 7-SUBSTITUTED INDOLE SULFONAMIDE DERIVATIVES” (F. Hoffmann-La Roche AG, priority 2022, dated 2024):
pIC50: −log10 of the molar value.

Biological target: human GPR17 short isoform (Homo sapiens, UniProt Q13304)
Assay: GPR17 cAMP assay (antagonist mode, TR-FRET cAMP detection)
Assay type: cell-based
Details: CHO-K1 cells stably expressing human GPR17 short isoform; with EC80 concentration of agonist MDL29,951, IBMX 0.5mM, forskolin 15µM; normalized to reference antagonist; read-out: hGPR17 cAMP IC50
In short: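 CHO-K1 cells stably expressing untagged human GPR17 short isoform, preincubated with compounds in HBSS/HEPES/0.1% BSA pH 7.4 plus EC80 MDL29,951 and 0.5 mM IBMX; forskolin (15 µM final) added after 5 min, then 30 min at room temperature. cAMP read by TR-FRET after 90 min lysis; normalized to reference antagonist maximum, sigmoidal fit.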

Chain of human GPR17 short isoform (Q13304 29-367): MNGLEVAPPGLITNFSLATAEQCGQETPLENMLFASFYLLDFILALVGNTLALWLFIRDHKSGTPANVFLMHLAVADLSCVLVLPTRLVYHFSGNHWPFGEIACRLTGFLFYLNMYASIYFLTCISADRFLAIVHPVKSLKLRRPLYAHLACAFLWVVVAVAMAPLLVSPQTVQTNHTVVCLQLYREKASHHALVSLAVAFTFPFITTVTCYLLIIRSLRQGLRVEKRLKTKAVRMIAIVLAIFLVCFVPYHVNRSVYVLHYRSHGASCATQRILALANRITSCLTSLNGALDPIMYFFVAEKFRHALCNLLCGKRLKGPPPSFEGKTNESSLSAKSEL

Row | Structure (SMILES) | pIC50
1 | COc1nc(NS(=O)(=O)c2c[nH]c3c(-n4nccn4)c(Br)ccc23)nc(OC)c1OC(F)F [Example 29, 6-bromo-N-[5-(difluoromethoxy)-4,6-dimethoxy-pyrimidin-2-yl]-7-(triazol-2-yl)-1H-indole-3-sulfonamide] | 7.66
2 | COc1nc(NS(=O)(=O)c2c[nH]c3c(-n4nccn4)c(Cl)ccc23)ncc1OCCF [Example 12, 6-chloro-N-[5-(2-fluoroethoxy)-4-methoxy-pyrimidin-2-yl]-7-(triazol-2-yl)-1H-indole-3-sulfonamide] | 7.28
3 | COc1nc(NS(=O)(=O)c2c[nH]c3c(-n4cccn4)c(C(F)F)ccc23)nc(OC)c1CC(F)F [Example 52, N-[5-(2,2-difluoroethyl)-4,6-dimethoxy-pyrimidin-2-yl]-6-(difluoromethyl)-7-pyrazol-1-yl-1H-indole-3-sulfonamide] | 7.17
4 | COc1nc(NS(=O)(=O)c2c[nH]c3c(-n4nccn4)c(C)ccc23)nc(OC)c1CC(F)F [Example 22, N-[5-(2,2-difluoroethyl)-4,6-dimethoxy-pyrimidin-2-yl]-6-methyl-7-(triazol-2-yl)-1H-indole-3-sulfonamide] | 7.68
5 | COc1nc(NS(=O)(=O)c2c[nH]c3c(-n4nccn4)c(C)ccc23)nc(OC)c1OC(F)F [Example 24, N-[5-(difluoromethoxy)-4,6-dimethoxy-pyrimidin-2-yl]-6-methyl-7-(triazol-2-yl)-1H-indole-3-sulfonamide] | 7.42
6 | COc1nc(NS(=O)(=O)c2c[nH]c3c(-n4nccn4)c(C)ccc23)nc(OC)c1C1CC1C#N (centres unmarked) [Example 26, N-[5-(2-cyanocyclopropyl)-4,6-dimethoxy-pyrimidin-2-yl]-6-methyl-7-(triazol-2-yl)-1H-indole-3-sulfonamide] | 7.60
7 | COc1nc(NS(=O)(=O)c2c[nH]c3c(-n4nccn4)cccc23)nc(OC)c1C1CC1C#N (centres unmarked) [Example 21, N-[5-(2-cyanocyclopropyl)-4,6-dimethoxy-pyrimidin-2-yl]-7-(triazol-2-yl)-1H-indole-3-sulfonamide] | 6.71
8 | COc1nc(NS(=O)(=O)c2c[nH]c3c(-n4cccn4)c(C)ccc23)nc(OC)c1OC(F)F [Example 76, N-[5-(difluoromethoxy)-4,6-dimethoxy-pyrimidin-2-yl]-6-methyl-7-pyrazol-1-yl-1H-indole-3-sulfonamide] | 7.12
9 | [2H]C([2H])(c1c(OC)nc(NS(=O)(=O)c2c[nH]c3c(-n4cccn4)c(Cl)ccc23)nc1OC)C(F)F [Example 86, 6-chloro-N-[5-(1,1-dideuterio-2,2-difluoroethyl)-4,6-dimethoxy-pyrimidin-2-yl]-7-pyrazol-1-yl-1H-indole-3-sulfonamide] | 7.36
10 | COc1nc(NS(=O)(=O)c2c[nH]c3c(-n4nccn4)c(Cl)ccc23)nc(OC)c1OC(F)F [Example 15, 6-chloro-N-[5-(difluoromethoxy)-4,6-dimethoxy-pyrimidin-2-yl]-7-(triazol-2-yl)-1H-indole-3-sulfonamide] | 7.60
11 | COc1nc(NS(=O)(=O)c2c[nH]c3c(-n4ccnc4)c(Cl)ccc23)ncc1CC(F)F [Example 8, 6-chloro-N-[5-(2,2-difluoroethyl)-4-methoxy-pyrimidin-2-yl]-7-imidazol-1-yl-1H-indole-3-sulfonamide] | 6.61
12 | COc1nc(NS(=O)(=O)c2c[nH]c3c(-n4nccn4)c(Br)ccc23)nc(OC)c1CC(F)F [Example 27, 6-bromo-N-[5-(2,2-difluoroethyl)-4,6-dimethoxy-pyrimidin-2-yl]-7-(triazol-2-yl)-1H-indole-3-sulfonamide] | 7.72
13 | COc1nc(NS(=O)(=O)c2c[nH]c3c(-n4cccn4)c(Br)ccc23)nc(OC)c1OC(F)F [Example 77, 6-bromo-N-[5-(difluoromethoxy)-4,6-dimethoxy-pyrimidin-2-yl]-7-pyrazol-1-yl-1H-indole-3-sulfonamide] | 7.57
14 | COc1nc(NS(=O)(=O)c2c[nH]c3c(-n4cccn4)c(Br)ccc23)nc(OC)c1OCC(F)F [Example 75, 6-bromo-N-[5-(2,2-difluoroethoxy)-4,6-dimethoxy-pyrimidin-2-yl]-7-pyrazol-1-yl-1H-indole-3-sulfonamide] | 7.38
15 | COc1nc(NS(=O)(=O)c2c[nH]c3c(-n4nccn4)c(C(F)F)ccc23)nc(OC)c1OCC(F)F [Example 11, N-[5-(2,2-difluoroethoxy)-4,6-dimethoxy-pyrimidin-2-yl]-6-(difluoromethyl)-7-(triazol-2-yl)-1H-indole-3-sulfonamide] | 7.13
16 | COc1nc(NS(=O)(=O)c2c[nH]c3c(-n4cccn4)c(Br)ccc23)nc(OC)c1OCCF [Example 83, 6-bromo-N-[5-(2-fluoroethoxy)-4,6-dimethoxy-pyrimidin-2-yl]-7-pyrazol-1-yl-1H-indole-3-sulfonamide] | 7.44
17 | COc1nc(NS(=O)(=O)c2c[nH]c3c(-n4ccnc4C)cccc23)nc(OC)c1CC(F)F [Example 5, N-[5-(2,2-difluoroethyl)-4,6-dimethoxy-pyrimidin-2-yl]-7-(2-methylimidazol-1-yl)-1H-indole-3-sulfonamide] | 7.32
